In ChEMBL document CHEMBL4196191, “Lowering Lipophilicity by Adding Carbon: One-Carbon Bridges of Morpholines and Piperazines” (J Med Chem, 2018):

Columns and labels:
[1] = Intrinsic clearance in rat hepatocytes assessed per million cells; type: ADME, cell-based, Hepatocyte; details: read-out: CLH
[2] = Distribution coefficient, log D of the compound in buffer/octanol solution by shake-flask method; type: physicochemical
[3] = target: Voltage-gated inwardly rectifying potassium channel KCNH2 (Homo sapiens, UniProt Q12809); experiment: Inhibition of human ERG
[4] = Intrinsic permeability in human Caco2 cells; type: ADME, cell-based; details: Caco-2
[5] = Dissociation constant, pKa of the compound (morpholine); type: physicochemical

Sequence of Voltage-gated inwardly rectifying potassium channel KCNH2 (Q12809 whole entry): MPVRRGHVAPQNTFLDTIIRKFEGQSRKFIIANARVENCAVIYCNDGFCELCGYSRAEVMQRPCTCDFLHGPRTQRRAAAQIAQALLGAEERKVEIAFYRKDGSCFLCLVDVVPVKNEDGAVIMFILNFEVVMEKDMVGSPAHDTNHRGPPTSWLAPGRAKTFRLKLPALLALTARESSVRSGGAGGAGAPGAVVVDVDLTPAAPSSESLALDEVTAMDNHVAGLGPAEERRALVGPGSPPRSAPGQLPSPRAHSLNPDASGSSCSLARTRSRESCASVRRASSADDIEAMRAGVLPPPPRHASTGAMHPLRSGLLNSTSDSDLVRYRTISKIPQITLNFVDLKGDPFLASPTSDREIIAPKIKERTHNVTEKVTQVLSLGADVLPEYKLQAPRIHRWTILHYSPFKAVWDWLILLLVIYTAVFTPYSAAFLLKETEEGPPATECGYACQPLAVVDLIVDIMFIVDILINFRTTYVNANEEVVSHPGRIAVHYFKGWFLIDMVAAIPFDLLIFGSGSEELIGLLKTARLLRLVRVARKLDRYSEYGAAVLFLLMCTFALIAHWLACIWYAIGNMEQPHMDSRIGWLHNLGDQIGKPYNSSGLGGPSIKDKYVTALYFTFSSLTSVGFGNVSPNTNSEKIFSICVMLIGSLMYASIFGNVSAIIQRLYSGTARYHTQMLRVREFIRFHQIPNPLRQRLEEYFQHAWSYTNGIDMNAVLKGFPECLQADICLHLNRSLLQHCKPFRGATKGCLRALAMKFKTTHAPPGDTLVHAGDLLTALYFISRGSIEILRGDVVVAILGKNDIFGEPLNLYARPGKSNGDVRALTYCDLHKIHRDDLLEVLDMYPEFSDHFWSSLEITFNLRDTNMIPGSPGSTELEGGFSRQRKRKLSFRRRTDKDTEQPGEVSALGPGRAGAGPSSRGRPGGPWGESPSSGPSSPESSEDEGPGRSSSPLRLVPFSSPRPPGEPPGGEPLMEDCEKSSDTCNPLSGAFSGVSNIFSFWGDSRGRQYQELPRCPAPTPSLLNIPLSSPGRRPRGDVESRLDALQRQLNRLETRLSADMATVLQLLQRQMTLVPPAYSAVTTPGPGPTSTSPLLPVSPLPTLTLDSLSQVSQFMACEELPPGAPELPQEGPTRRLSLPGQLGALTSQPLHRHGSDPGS

Row | Compound | hepatocyte CLint [1] | logD [2] | Papp [4] | IC50 [3] | pKa [5]
1 | Cc1c[nH]c2ncnc(O[C@H]3CC[C@H](N4C[C@@H]5C[C@H]4CO5)CC3)c12 | 36 µL/min/1e6 cells | 2 | 29 ×10⁻⁶ cm/s | > 39.8 µM | 
2 | Cc1c[nH]c2ncnc(O[C@H]3CC[C@H](N4CCOCC4)CC3)c12 | 180 µL/min/1e6 cells | 2.6 | 33 ×10⁻⁶ cm/s | > 39.8 µM | 7.5
3 | Cc1c[nH]c2ncnc(O[C@H]3CC[C@H](N4C[C@H]5C[C@@H]4CO5)CC3)c12 | 110 µL/min/1e6 cells | 1.8 | 25 ×10⁻⁶ cm/s | > 39.8 µM | 8.1

Further lines, with some results ahead:

Row | hepatocyte CLint [1] | logD [2] | Papp [4] | Compound | IC50 [3] | pKa [5]
4 | 140 µL/min/1e6 cells | 3 | 31 ×10⁻⁶ cm/s | Cc1c[nH]c2ncnc(O[C@H]3CC[C@H](N4CCO[C@@H](C)C4)CC3)c12 | 25.1 µM | 
5 | 210 µL/min/1e6 cells | 3.1 | 27 ×10⁻⁶ cm/s | Cc1c[nH]c2ncnc(O[C@H]3CC[C@H](N4CCO[C@H](C)C4)CC3)c12 | > 39.8 µM | 
